Reference: US7541466B2, “Tetrahydroisoquinoline derivatives for treating protein trafficking diseases” (Genzyme Corporation, priority 2003, dated 2009)

Biological target: T1, ΔF508 CFTR (Homo sapiens, UniProt P13569, DEL508-508)
T1 construct: expressed in transfected cells
Assay: MQAE chloride transport assay in C127 cells expressing ΔF508 CFTR
Type: cell-based, murine
Details: for Emax: C127, plateau level in activity at high compound concentration, read-out: % of Maximal Response; for Emax / % of Maximal Response: as a percentage of the low temperature response; for EC50: chloride transport activity, C127 ΔF508 CFTR cells, MQAE; for % of Maximal Response: plateau level in activity at high compound concentration
Protocol: C127 cells are a murine mammary epithelial cell line obtained from ATCC (#CRL 1616, American Type Culture Collection, Manassas, Va.). C127 cells were transfected with a bovine papilloma virus-based eukaryotic expression vector containing genes for ΔF508 CFTR and neomycin resistance whose expression was driven by a metallothionein promoter. Clonal cell populations resistant to G418 and positive for staining with anti-CFTR antibody were identified.
C127 cells expressing ΔF508 CFTR were grown in microtiter plates in DMEM (Dulbecco's Modified Eagle Medium, Hyclone, Logan, Utah) supplemented with fetal bovine serum, antibiotics, and glutamine in a 37° C., 5% CO2 atmosphere. Once confluent, the cells were loaded overnight with the disclosed compounds and a fluorescent dye sensitive to chloride ion concentration, N-(ethoxycarbonylmethyl)-6-methoxy quinolinium bromide (MQAE) (Verkman, Am. J. Physiol. 259 C375-C388 (1990)).
The following day, cells were washed with chloride-containing buffer to remove extracellular MQAE and to quench intracellular MQAE fluorescence. Chloride buffer was flicked out and replaced with nitrate buffer with added forskolin and IBMX (isobutylmethylxanthine) to stimulate CFTR activity. […] Buffers were adjusted to pH 7.4 and contained: 10 mM HEPES (N-2-Hydroxyethylpiperazine-N′-2-ethanesulfonic acid), 2.4 mM K2HPO4, 0.6 mM KH2PO4, 1.0 mM CaSO4, 1.0 mM MgSO4, 150 mM NaCl or NaNO3, and 25 mM glucose.
The increase in MQAE fluorescence as a function of time was followed using 360 nm excitation and 460 nm emission wavelengths. Fluorescence increased as chloride flowed out of cells through CFTR and the rate of increase in fluorescence over the first five minutes was taken as a measure of chloride transport activity.
Cells were treated with mixtures of up to 100 compounds per well for ca. 18 hours before the assay for chloride transport activity. […] Dose-response curves were generated and compounds were ranked based on their EC50 values and maximal responses (the plateau level in activity at high compound concentration, as a percentage of the low temperature response).

T1 sequence (P13569 with tags, fused parts or gaps DEL508-508): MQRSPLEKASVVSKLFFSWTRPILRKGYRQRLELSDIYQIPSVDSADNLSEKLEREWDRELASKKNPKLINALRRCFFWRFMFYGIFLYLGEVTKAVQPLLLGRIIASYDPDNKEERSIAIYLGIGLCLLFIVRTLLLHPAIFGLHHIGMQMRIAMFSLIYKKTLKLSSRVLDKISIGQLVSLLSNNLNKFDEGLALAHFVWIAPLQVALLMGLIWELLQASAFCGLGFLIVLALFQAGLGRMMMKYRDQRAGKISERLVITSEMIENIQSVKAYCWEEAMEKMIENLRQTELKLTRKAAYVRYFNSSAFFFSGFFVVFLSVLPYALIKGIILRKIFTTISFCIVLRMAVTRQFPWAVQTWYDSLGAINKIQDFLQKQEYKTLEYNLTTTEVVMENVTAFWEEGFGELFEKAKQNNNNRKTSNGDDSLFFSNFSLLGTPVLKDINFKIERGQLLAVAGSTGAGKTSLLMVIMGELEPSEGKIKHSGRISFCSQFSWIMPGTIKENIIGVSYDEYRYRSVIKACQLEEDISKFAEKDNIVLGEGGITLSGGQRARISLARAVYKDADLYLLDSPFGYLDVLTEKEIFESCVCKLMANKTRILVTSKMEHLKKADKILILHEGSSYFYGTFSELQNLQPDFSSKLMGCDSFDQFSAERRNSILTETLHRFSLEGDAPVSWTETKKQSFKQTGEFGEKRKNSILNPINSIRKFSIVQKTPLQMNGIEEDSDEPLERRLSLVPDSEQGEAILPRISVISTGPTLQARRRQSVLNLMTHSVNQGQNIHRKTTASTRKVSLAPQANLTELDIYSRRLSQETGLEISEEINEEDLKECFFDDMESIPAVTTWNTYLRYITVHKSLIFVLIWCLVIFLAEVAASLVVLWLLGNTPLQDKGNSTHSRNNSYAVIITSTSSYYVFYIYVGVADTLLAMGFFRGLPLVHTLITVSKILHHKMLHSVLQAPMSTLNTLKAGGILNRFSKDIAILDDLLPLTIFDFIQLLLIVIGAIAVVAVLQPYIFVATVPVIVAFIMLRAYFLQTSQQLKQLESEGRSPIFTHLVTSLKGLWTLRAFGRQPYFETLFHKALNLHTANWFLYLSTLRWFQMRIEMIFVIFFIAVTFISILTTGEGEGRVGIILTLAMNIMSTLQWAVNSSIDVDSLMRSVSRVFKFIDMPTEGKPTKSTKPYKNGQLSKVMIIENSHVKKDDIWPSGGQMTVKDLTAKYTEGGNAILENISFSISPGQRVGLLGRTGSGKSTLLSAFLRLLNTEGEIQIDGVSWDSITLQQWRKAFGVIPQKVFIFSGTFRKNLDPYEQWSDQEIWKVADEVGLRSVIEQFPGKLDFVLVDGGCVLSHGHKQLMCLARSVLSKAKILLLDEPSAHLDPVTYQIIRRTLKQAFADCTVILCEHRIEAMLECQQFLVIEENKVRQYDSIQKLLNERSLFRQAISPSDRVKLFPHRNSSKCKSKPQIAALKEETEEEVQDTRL

| Emax [%] | EC50 [µM] | % of Maximal Response [%] | Structure (SMILES) |
| --- | --- | --- | --- |
| 55 | – | – | O=C(Nc1cccnc1)C1Cc2ccccc2CN1C(=O)c1cccc(Oc2ccccc2)c1 (racemic) [Compound 98] |
| 82 | 0.27 | – | CCCc1ccc(NC(=O)C2Cc3ccccc3CN2C(=O)c2cccc(Oc3ccccc3)c2)cc1 (racemic) [Compound 75] |
| 84 | 0.0044 | – | CCCCCc1ccc(NC(=O)C2Cc3ccccc3CN2C(=O)c2cccc(OC(C)CC)c2)cc1 (stereo not shown) [Compound 140] |
| 63 | 0.095 | – | CCCCCc1ccc(NC(=O)[C@@H]2Cc3ccccc3CN2C(=O)c2cccc(CN3CCOCC3)c2)cc1 [Compound 123] |
| 54 | 0.066 | – | CC(=O)N(C)c1ccc(NC(=O)[C@@H]2Cc3ccccc3CN2C(=O)c2cccc(Oc3ccccc3)c2)cc1 [Compound 86] |
| 79 | 0.28 | – | CCOc1cccc(NC(=O)C2Cc3ccccc3CN2C(=O)c2cccc(Oc3ccccc3)c2)c1 (racemic) [Compound 83] |
| 56 | 0.29 | – | CCCCCc1ccc(NC(=O)[C@@H]2Cc3ccccc3CN2C(=O)c2ccc3c(c2)OCCO3)cc1 [Compound 135] |
| 74 | 0.096 | – | CC(=O)N(C)c1ccc(NC(=O)C2Cc3ccccc3CN2C(=O)c2cccc(Oc3ccccc3)c2)cc1 (racemic) [Compound 85] |
| – | 0.025 | 75 | CCCCCc1ccc(NC(=O)[C@@H]2Cc3ccccc3CN2C(=O)c2cc(OC(C)C)c(OC)cn2)cc1 [Compound 145, (S)-2-(4-Isopropoxy-5-methoxypyridine-2-carbonyl)-1,2,3,4-tetrahydroisoquinoline-3-carboxylic acid(4-pentylphenyl)amide] |
| 60 | – | – | O=C(Nc1ccc(I)cc1)C1Cc2ccccc2CN1C(=O)c1cccc(Oc2ccccc2)c1 (racemic) [Compound 93] |
| 60 | 0.1 | – | COc1ccc(C(=O)N2Cc3ccccc3CC2C(=O)Nc2ccc(Cl)nc2)cc1Oc1ccccc1 (racemic) [Compound 108] |
| 40 | 0.25 | – | CC(C)c1ccc(NC(=O)C2Cc3ccccc3CN2C(=O)c2cccc(Oc3ccccc3)c2)cc1 (racemic) [Compound 78] |
| 87 | 0.096 | – | O=C(Nc1ccc(F)cc1)[C@@H]1Cc2ccccc2CN1C(=O)c1cc(OC2CCCCC2)ccn1 [Compound 109] |
| 63 | 0.11 | – | CCCCCc1ccc(NC(=O)[C@@H]2Cc3ccccc3CN2C(=O)c2ccc(OC)c(OCCN3CCOCC3)c2)cc1 [Compound 128, (S)-2-[4-Methoxy-3-(2-morpholin-4-yl-ethoxy)benzoyl]-1,2,3,4-tetrahydroisoquinoline-3-carboxylic acid (4-pentylphenyl)amide] |
| 76 | – | – | CCCCCc1ccc(NC(=O)[C@@H]2Cc3ccccc3CN2C(=O)c2cccc(Oc3ccccc3)c2)cc1 [Compound 88] |
| 70 | 0.029 | – | CCCCCCN(C(C)=O)c1ccc(NC(=O)[C@@H]2Cc3ccccc3CN2C(=O)c2cccc(Oc3ccccc3)c2)cc1 [Compound 91] |
| 84 | 0.012 | – | CCCCCc1ccc(NC(=O)[C@@H]2Cc3ccccc3CN2C(=O)c2cccc(OC(CC)CC)c2)cc1 [Compound 141] |
| 83 | 0.18 | – | CCCCCc1ccc(NC(=O)[C@@H]2Cc3ccccc3CN2C(=O)c2ccc(OC)c(OC)c2)cc1 [Compound 127] |
| 52 | 0.26 | – | COc1ccccc1Oc1cccc(C(=O)N2Cc3ccccc3CC2C(=O)Nc2ccc(Cl)cc2)c1 (racemic) [Compound 11, (±)-2-[3-(2-Methoxyphenoxy)benzoyl]-1,2,3,4-tetrahydroisoquinoline-3-carboxylic acid(4-chlorophenyl)amide] |
| – | 0.0063 | 80 | CCCCCc1ccc(NC(=O)[C@@H]2Cc3ccccc3CN2C(=O)c2cccc(Oc3ccc(OCC)c(Oc4ccccc4)c3)c2)cc1 [Compound 121, (S)-2-[3-(4-Ethoxy-3-phenoxyphenoxy)benzoyl]-1,2,3,4-tetrahydroisoquinoline-3-carboxylic acid (4-pentylphenyl)amide] |
